The target in this test is T1, FGFR3 K650M (Homo sapiens, UniProt P22607, K650M).
T1 construct: purchased Thermo Fisher Scientific (Life Technologies) SelectScreen
Briefly: SelectScreen LanthaScreen. In kind it is binding. The conditions noted are these: read-out: % displacement. The gist of the method:
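NU5455 was profiled across the SelectScreen Broad panel of kinase activity and binding assays. Z'LYTE reactions such as CSF1R ran at apparent Km ATP, while the Adapta CAMK1 assay used ATP listed as 10. Values are given as percent.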
On the technique in general: In TR-FRET formats the signal depends on donor and acceptor labels being close together.

T1 sequence (P22607 23-806 K650M): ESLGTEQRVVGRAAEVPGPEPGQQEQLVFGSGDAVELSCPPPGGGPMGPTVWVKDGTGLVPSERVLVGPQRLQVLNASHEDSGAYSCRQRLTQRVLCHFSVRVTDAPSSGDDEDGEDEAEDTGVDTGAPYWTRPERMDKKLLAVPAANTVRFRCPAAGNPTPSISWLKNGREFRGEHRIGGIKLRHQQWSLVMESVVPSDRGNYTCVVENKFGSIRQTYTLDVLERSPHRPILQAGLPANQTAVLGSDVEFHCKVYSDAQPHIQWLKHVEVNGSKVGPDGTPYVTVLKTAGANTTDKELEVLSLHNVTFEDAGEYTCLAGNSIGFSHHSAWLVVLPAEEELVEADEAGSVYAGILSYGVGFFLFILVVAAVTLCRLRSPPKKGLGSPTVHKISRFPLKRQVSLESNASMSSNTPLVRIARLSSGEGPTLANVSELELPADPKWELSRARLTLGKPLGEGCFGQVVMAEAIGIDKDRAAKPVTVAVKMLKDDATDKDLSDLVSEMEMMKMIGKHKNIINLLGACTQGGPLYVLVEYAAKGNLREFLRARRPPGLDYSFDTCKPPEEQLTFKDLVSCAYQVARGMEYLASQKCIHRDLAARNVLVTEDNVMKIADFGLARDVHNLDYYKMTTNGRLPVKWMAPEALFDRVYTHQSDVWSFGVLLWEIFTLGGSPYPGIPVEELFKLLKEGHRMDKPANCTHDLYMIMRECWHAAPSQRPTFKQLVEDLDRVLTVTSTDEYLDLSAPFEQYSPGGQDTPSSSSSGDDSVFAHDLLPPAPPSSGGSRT

Regarding `CN(C(=O)CN1CCOCC1)c1ccc2sc3c(-c4cccc5c(=O)cc(N6CC7CCC(C6)O7)oc45)cccc3c2c1` [NU5455], the inhibition at 1 µM was determined as 16.5%.

(Values after paper PMC6934184, “Selective DNA-PKcs inhibition extends the therapeutic index of localized radiotherapy and chemotherapy” (The Journal of Clinical Investigation, 2019).)
